The record followed here is patent US9474790B2, “Stable, protracted GLP-1/glucagon receptor co-agonists for medical use” (Novo Nordisk A/S, priority 2013, dated 2016).

Series [1] is described as follows: Chemical stability assessment by RP-UPLC. In kind it is physicochemical. As to conditions: 333 μM, 8 mM phosphate buffer pH 7.3, 37° C. vs 5° C. A digest of the protocol:
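Purity loss = (purity after 14 days at 5° C. minus that at 37° C.) relative to the 5° C. value, purity being main-peak area % by RP-UPLC with UV at 215 nm. Samples were 333 μM in 8 mM phosphate, pH 7.3; gradient adjusted for outlying retention times.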

The nature of series [2]: Thioflavin T (ThT) fibrillation assay for physical stability. In kind it is physicochemical. As to conditions: 250 μM in 10 mM HEPES buffer, pH 7.5, 37° C., shaking 960 rpm. An outline of the steps:
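Fibrillation was followed by ThT (1 μM) fluorescence every 20 min, 444/485 nm, for 250 μM peptide in 10 mM HEPES pH 7.5 shaken at 960 rpm, 37° C. Lag time (t0−2τ) and apparent rate constant (1/τ) come from a sigmoidal fit. Recovery is % of initial concentration remaining soluble after centrifugation and filtration (RP-HPLC).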

Structures are written as SMILES. Numbered stars: 1 amine (or outer) side, 2 acyl side, 3 side chain; on linkers, the order of the positions; unused ones are H or OH. Square brackets hold non-standard residues; d marks the D form. Side chains are listed from the residue outwards. Peptide text beside a SMILES is read from it. * marks the point of attachment. C18 diacid = O=C(O)CCCCCCCCCCCCCCCCC(=O)*; γGlu = O=C(O)[C@H](CCC(=O)[*:2])N[*:1]; Ac4c = NC1(C(=O)O)CCC1; AEEA = NCCOCCOCC(=O)O; Aib = CC(C)(N)C(=O)O

For the compound `CC(C)C[C@H](NC(=O)[C@H](Cc1ccc(O)cc1)NC(=O)[C@H](CCCCN)NC(=O)[C@H](CO)NC(=O)[C@H](CC(C)C)NC(=O)[C@H](CC(=O)O)NC(=O)[C@H](CO)NC(=O)[C@@H](NC(=O)[C@H](Cc1ccccc1)NC(=O)[C@@H](NC(=O)CNC(=O)[C@H](CCC(N)=O)NC(=O)C(C)(C)NC(=O)[C@@H](N)Cc1c[nH]cn1)[C@@H](C)O)[C@@H](C)O)C(=O)N[C@@H](CC(=O)O)C(=O)N[C@@H](C)C(=O)N[C@@H](CCCNC(=N)N)C(=O)N[C@@H](CCCNC(=N)N)C(=O)N[C@@H](C)C(=O)N[C@@H](CCCNC(=N)N)C(=O)N[C@@H](CCC(=O)O)C(=O)N[C@@H](Cc1ccccc1)C(=O)N[C@H](C(=O)N[C@@H](CCC(N)=O)C(=O)N[C@@H](Cc1c[nH]c2ccccc12)C(=O)N[C@@H](CC(C)C)C(=O)N[C@@H](CC(C)C)C(=O)N[C@@H](CCCCNC(=O)CC[C@H](NC(=O)CC[C@H](NC(=O)COCCOCCNC(=O)COCCOCCNC(=O)CC[C@H](NC(=O)CCCCCCCCCCCCCCCCC(=O)O)C(=O)O)C(=O)O)C(=O)O)C(=O)N[C@H](C(N)=O)[C@@H](C)O)C(C)C` [Example 43, N^ε28-[(4S)-4-carboxy-4-[[(4S)-4-carboxy-4-[[2-[2-[2-[[2-[2-[2-[[(4S)-4-carboxy-4-(17-carboxyheptadecanoylamino)butanoyl]amino]ethoxy]ethoxy]acetyl]amino]ethoxy]ethoxy]acetyl]amino]butanoyl]amino]butanoyl]-[Aib2,Leu10,Ala16,Arg20,Glu21,Leu27,Lys28]-Glucagon amide] (H-H[Aib]QGTFTSDLSKYLDARRAREFVQWLLK([γGlu-γGlu-AEEA-AEEA-γGlu-C18 diacid])T-NH2; N-terminus assumed), the “Purity loss; 14 days at 37° C.” value in series [1] was found to be 2%. The same compound registered a THT assay Lag time (Ex. 76) in series [2] of 45 h.

Turning to `CC(C)C[C@H](NC(=O)[C@H](Cc1ccc(O)cc1)NC(=O)[C@H](CCCCN)NC(=O)[C@H](CO)NC(=O)[C@H](CC(C)C)NC(=O)[C@H](CC(=O)O)NC(=O)[C@H](CO)NC(=O)[C@@H](NC(=O)[C@H](Cc1ccccc1)NC(=O)[C@@H](NC(=O)CNC(=O)[C@H](CCC(N)=O)NC(=O)C1(NC(=O)[C@@H](N)Cc2c[nH]cn2)CCC1)[C@@H](C)O)[C@@H](C)O)C(=O)N[C@@H](CCC(=O)O)C(=O)N[C@@H](CO)C(=O)N[C@@H](CCCNC(=N)N)C(=O)N[C@@H](CCCNC(=N)N)C(=O)N[C@@H](C)C(=O)N[C@@H](CCCNC(=N)N)C(=O)N[C@@H](CCC(=O)O)C(=O)N[C@@H](Cc1ccccc1)C(=O)N[C@H](C(=O)N[C@@H](CCC(N)=O)C(=O)N[C@@H](Cc1c[nH]c2ccccc12)C(=O)N[C@@H](CC(C)C)C(=O)N[C@@H](CC(C)C)C(=O)N[C@@H](CCCCNC(=O)CC[C@H](NC(=O)CC[C@H](NC(=O)COCCOCCNC(=O)COCCOCCNC(=O)CC[C@H](NC(=O)CCCCCCCCCCCCCCCCC(=O)O)C(=O)O)C(=O)O)C(=O)O)C(=O)N[C@H](C(N)=O)[C@@H](C)O)C(C)C` [Example 44, N^ε28-[(4S)-4-carboxy-4-[[(4S)-4-carboxy-4-[[2-[2-[2-[[2-[2-[2-[[(4S)-4-carboxy-4-(17-carboxyheptadecanoylamino)butanoyl]amino]ethoxy]ethoxy]acetyl]amino]ethoxy]ethoxy]acetyl]amino]butanoyl]amino]butanoyl]-[Acb2,Leu10,Glu15,Arg20,Glu21,Leu27,Lys28]-Glucagon amide] (H-H[Ac4c]QGTFTSDLSKYLESRRAREFVQWLLK([γGlu-γGlu-AEEA-AEEA-γGlu-C18 diacid])T-NH2; N-terminus assumed), the “Purity loss; 14 days at 37° C.” value in series [1] was 2%. For the same compound, the THT assay Lag time (Ex. 76) in series [2] came out at 45 h.

Turning to `CC(C)C[C@H](NC(=O)[C@H](CC(=O)O)NC(=O)[C@H](CC(C)C)NC(=O)[C@H](Cc1ccc(O)cc1)NC(=O)[C@H](CCCCN)NC(=O)[C@H](CO)NC(=O)[C@H](CC(C)C)NC(=O)[C@H](CC(=O)O)NC(=O)[C@H](CO)NC(=O)[C@@H](NC(=O)[C@H](Cc1ccccc1)NC(=O)[C@@H](NC(=O)CNC(=O)[C@H](CCC(N)=O)NC(=O)C1(NC(=O)[C@@H](N)Cc2c[nH]cn2)CCC1)[C@@H](C)O)[C@@H](C)O)C(=O)N[C@@H](CCCNC(=N)N)C(=O)N[C@@H](CCCNC(=N)N)C(=O)N[C@@H](C)C(=O)N[C@@H](CCCNC(=N)N)C(=O)N[C@@H](CC(=O)O)C(=O)N[C@@H](Cc1ccccc1)C(=O)N[C@H](C(=O)N[C@@H](CCC(N)=O)C(=O)N[C@@H](Cc1c[nH]c2ccccc12)C(=O)N[C@@H](CC(C)C)C(=O)N[C@@H](CC(C)C)C(=O)N[C@@H](CCCCNC(=O)CC[C@H](NC(=O)CC[C@H](NC(=O)COCCOCCNC(=O)COCCOCCNC(=O)CC[C@H](NC(=O)CC[C@H](NC(=O)CCCCCCCCCCCCCCCCC(=O)O)C(=O)O)C(=O)O)C(=O)O)C(=O)O)C(=O)N[C@H](C(N)=O)[C@@H](C)O)C(C)C` [Example 45, N^ε28-[(4S)-4-carboxy-4-[[(4S)-4-carboxy-4-[[2-[2-[2-[[2-[2-[2-[[(4S)-4-carboxy-4-[[(4S)-4-carboxy-4-(17-carboxyheptadecanoylamino)butanoyl]amino]butanoyl]amino]ethoxy]ethoxy]acetyl]amino]ethoxy]ethoxy]acetyl]amino]butanoyl]amino]butanoyl]-[Acb2,Leu10,Leu16,Arg20,Leu27,Lys28]-Glucagon amide] (H-H[Ac4c]QGTFTSDLSKYLDLRRARDFVQWLLK([γGlu-γGlu-AEEA-AEEA-γGlu-γGlu-C18 diacid])T-NH2; N-terminus assumed), in series [1], the “Purity loss; 14 days at 37° C.” value was 3%. The compound also gave a THT assay Lag time (Ex. 76) in series [2] of 45 h.

For the compound `CC(C)C[C@H](NC(=O)[C@H](CC(=O)O)NC(=O)[C@H](CC(C)C)NC(=O)[C@H](Cc1ccc(O)cc1)NC(=O)[C@H](CCCNC(=N)N)NC(=O)[C@H](CO)NC(=O)[C@H](CC(C)C)NC(=O)[C@H](CC(=O)O)NC(=O)[C@H](CO)NC(=O)[C@@H](NC(=O)[C@H](Cc1ccccc1)NC(=O)[C@@H](NC(=O)CNC(=O)[C@H](CCC(N)=O)NC(=O)C1(NC(=O)[C@@H](N)Cc2c[nH]cn2)CCC1)[C@@H](C)O)[C@@H](C)O)C(=O)N[C@@H](CCCNC(=N)N)C(=O)N[C@@H](CCCNC(=N)N)C(=O)N[C@@H](C)C(=O)N[C@@H](CCCNC(=N)N)C(=O)N[C@@H](CC(=O)O)C(=O)N[C@@H](Cc1ccccc1)C(=O)N[C@H](C(=O)N[C@@H](CCC(N)=O)C(=O)N[C@@H](Cc1c[nH]c2ccccc12)C(=O)N[C@@H](CC(C)C)C(=O)N[C@@H](CC(C)C)C(=O)N[C@@H](CCCCNC(=O)CC[C@H](NC(=O)CC[C@H](NC(=O)COCCOCCNC(=O)COCCOCCNC(=O)CC[C@H](NC(=O)CC[C@H](NC(=O)CCCCCCCCCCCCCCCCC(=O)O)C(=O)O)C(=O)O)C(=O)O)C(=O)O)C(=O)N[C@H](C(N)=O)[C@@H](C)O)C(C)C` [Example 46, N^ε28-[(4S)-4-carboxy-4-[[(4S)-4-carboxy-4-[[2-[2-[2-[[2-[2-[2-[[(4S)-4-carboxy-4-[[(4S)-4-carboxy-4-(17-carboxyheptadecanoylamino)butanoyl]amino]butanoyl]amino]ethoxy]ethoxy]acetyl]amino]ethoxy]ethoxy]acetyl]amino]butanoyl]amino]butanoyl]-[Acb2,Leu10,Arg12,Leu16,Arg20,Leu27,Lys28]-Glucagon amide] (H-H[Ac4c]QGTFTSDLSRYLDLRRARDFVQWLLK([γGlu-γGlu-AEEA-AEEA-γGlu-γGlu-C18 diacid])T-NH2; N-terminus assumed), the “Purity loss; 14 days at 37° C.” value in series [1] stood at 1%. In addition, in series [2], the THT assay Lag time (Ex. 76) is 45 h.

With `CC(C)C[C@H](NC(=O)[C@H](CC(=O)O)NC(=O)[C@H](CC(C)C)NC(=O)[C@H](Cc1ccc(O)cc1)NC(=O)[C@H](CCCCN)NC(=O)[C@H](CO)NC(=O)[C@H](CC(C)C)NC(=O)[C@H](CC(=O)O)NC(=O)[C@H](CO)NC(=O)[C@@H](NC(=O)[C@H](Cc1ccccc1)NC(=O)[C@@H](NC(=O)CNC(=O)[C@H](CCC(N)=O)NC(=O)C1(NC(=O)[C@@H](N)Cc2c[nH]cn2)CCC1)[C@@H](C)O)[C@@H](C)O)C(=O)N[C@@H](CCCCN)C(=O)N[C@@H](CCCNC(=N)N)C(=O)N[C@@H](C)C(=O)N[C@@H](CCCNC(=N)N)C(=O)N[C@@H](CCC(=O)O)C(=O)N[C@@H](Cc1ccccc1)C(=O)N[C@H](C(=O)N[C@@H](CCC(N)=O)C(=O)N[C@@H](Cc1c[nH]c2ccccc12)C(=O)N[C@@H](CC(C)C)C(=O)N[C@@H](CC(C)C)C(=O)N[C@@H](CCCCNC(=O)CC[C@H](NC(=O)CC[C@H](NC(=O)COCCOCCNC(=O)COCCOCCNC(=O)CC[C@H](NC(=O)CC[C@H](NC(=O)CCCCCCCCCCCCCCCCC(=O)O)C(=O)O)C(=O)O)C(=O)O)C(=O)O)C(=O)N[C@H](C(N)=O)[C@@H](C)O)C(C)C` [Example 47, N^ε28-[(4S)-4-carboxy-4-[[(4S)-4-carboxy-4-[[2-[2-[2-[[2-[2-[2-[[(4S)-4-carboxy-4-[[(4S)-4-carboxy-4-(17-carboxyheptadecanoylamino)butanoyl]amino]butanoyl]amino]ethoxy]ethoxy]acetyl]amino]ethoxy]ethoxy]acetyl]amino]butanoyl]amino]butanoyl]-[Acb2,Leu10,Leu16,Lys17,Arg20,Glu21,Leu27,Lys28]-Glucagon amide] (H-H[Ac4c]QGTFTSDLSKYLDLKRAREFVQWLLK([γGlu-γGlu-AEEA-AEEA-γGlu-γGlu-C18 diacid])T-NH2; N-terminus assumed), the “Purity loss; 14 days at 37° C.” value in series [1] came to 3%. The compound further registered a THT assay Lag time (Ex. 76) in series [2] of 45 h.
